The values that follow come from patent US20230391772A1, “METHODS AND COMPOSITIONS FOR TARGETED PROTEIN DEGRADATION” (Ranok Therapeutics (Hangzhou) Co. Ltd., priority 2020, published 2023).

Each structure is given as a SMILES string. pEC50, pIC50: −log10 of the molar value.

One assay deals with T1, HSP90a protein (Homo sapiens, UniProt P07900).
T1 construct: purchased BPS Bioscience 50298
The assay is described as follows: HSP90α-binding fluorescent polarization (FP) assay, BODIPY-labeled RNK04010 probe. The settings on record: FP competition with RNK04010 (BODIPY-labeled), 5 nM, 300 min at 25° C. The method, boiled down: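 Displacement of a 5 nM fluorescent HSP90 ligand from the N-terminal HSP90a domain by FP. Incubation ran at 25° C: 120 min for the FITC-geldanamycin tracer, 300 min for the BODIPY-conjugated triazolone RNK04010.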

Assay [1] has as its system NCI-H23 human non-small cell lung cancer. The assay is described as follows: NCI-H23 CCK-8 proliferation assay. The assay is classed as cell-based. Conditions: NCI-H23 cells, 72 hr. On the procedure: The following cancer cell lines were employed: BT-474 human breast carcinoma (ATCC, #HTB-20); MIA PaCa-2 human pancreatic carcinoma [2 copies KRAS(G12C)](ATCC, #CRL-1420); NCI-H23 human non-small cell lung cancer [1 copy KRAS(G12C)](ATCC, #CRL-5800); NCI-H358 human non-small cell lung cancer [1 copy KRAS(G12C)](ATCC, #CRL-5807); LU65A human lung carcinoma (Pharmaron, Beijing, China). Cell lines were cultured essentially according to ATCC and Pharmaron recommendations.
Cancer Cell Line Proliferation (CCK-8) Assays
3-fold serial dilutions of each test compound were prepared ranging from 20 μM to 1.02 nM.
% Inhibition=100−(D−B)/(S−B)*100%. • S: Absorbance of cells treated with DMSO • D: Absorbance of compound-treated cells • B: Absorbance of medium with DMSO without cells
On the technique in general: Tetrazolium assays rely on reduction of a dye to a coloured formazan, in cell work by metabolically active cells.

The subject of assay [2] is MIA PaCa-2 human pancreatic carcinoma. The assay is described as follows: MIA PaCa-2 CCK-8 proliferation assay. In kind it is cell-based. Conditions: Homo sapiens, MIA PaCa-2, 72 h, MIA PaCa-2 cells. The method, boiled down:
(§1)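 Percent inhibition derived from CCK-8 optical signal, normalised between DMSO-only cells (0%) and cell-free medium containing DMSO as background. Cells: MIA PaCa-2 carrying 2 KRAS(G12C) copies; NCI-H358, NCI-H23 carrying 1 copy apiece. Concentrations spanned 1.02 nM–20 μM in threefold increments.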

The test system of assay [3] is NCI-H358 human non-small cell lung cancer. As to the kind of experiment: NCI-H358 CCK-8 proliferation assay. In kind it is cell-based. Conditions: NCI-H358 cells, 72 hr. The method in brief:
as §1

Broadly, the pIC50 is the IC50 on a negative log10 scale, so that one unit is a factor of ten. The term pEC50 denotes −log10 of the EC50, conventionally taken in molar units. As for `CC(=O)N1CCN(c2nc(NCCC(=O)N3CCC(CN4CCN(Cc5ccc(-n6c(O)nnc6-c6cc(C(C)C)c(O)cc6O)cc5)CC4)CC3)nc3c2CCN(c2cc(O)cc4ccccc24)C3)CC1` [Compound 21, 3-((4-(4-acetylpiperazin-1-yl)-7-(3-hydroxynaphthalen-1-yl)-5,6,7,8-tetrahydropyrido[3,4-d]pyrimidin-2-yl)amino)-1-(4-((4-(4-(3-(2,4-dihydroxy-5-isopropylphenyl)-5-hydroxy-4H-1,2,4-triazol-4-yl)benzyl)piperazin-1-yl)methyl)piperidin-1-yl)propan-1-one, trifluoroacetic acid], the pIC50 on HSP90a protein was more than 7.00. Further, the pEC50 in assay [1], in assay [2] and in assay [3] was 6.00 to 7.00 throughout.
Regarding `C=CC(=O)N1CCN(c2nc(NCCC(=O)N3CCC(CN4CCN(Cc5ccc(-n6c(C(N)=O)nnc6-c6cc(CC)c(O)cc6O)cc5)CC4)CC3)nc3c2CCN(c2cccc4ccccc24)C3)C[C@H]1CC#N` [Compound 98, (R)-4-(4-((4-((1-(3-((4-(4-acryloyl-3-(cyanomethyl)piperazin-1-yl)-7-(naphthalen-1-yl)-5,6,7,8-tetrahydropyrido[3,4-d]pyrimidin-2-yl)amino)propanoyl)piperidin-4-yl)methyl)piperazin-1-yl)methyl)phenyl)-5-(5-ethyl-2,4-dihydroxyphenyl)-4H-1,2,4-triazole-3-carboxamide, trifluoroacetic acid], the negative logarithm of the IC50 (pIC50) at HSP90a protein is more than 7.00. Also, the pEC50 in assay [1] and in assay [3] was 6.00 to 7.00 in each case.
Consider `C=CC(=O)N1CCN(c2nc(NCCC(=O)N3CCC(CN4CCN(Cc5ccc(-n6c(C(N)=O)nnc6-c6cc(CC)c(O)cc6O)cc5)CC4)CC3)nc3c2CCN(c2cccc4cccc(Cl)c24)C3)C[C@H]1CC#N` [Compound 99, (R)-4-(4-((4-((1-(3-((4-(4-acryloyl-3-(cyanomethyl)piperazin-1-yl)-7-(8-chloronaphthalen-1-yl)-5,6,7,8-tetrahydropyrido[3,4-d]pyrimidin-2-yl)amino)propanoyl)piperidin-4-yl)methyl)piperazin-1-yl)methyl)phenyl)-5-(5-ethyl-2,4-dihydroxyphenyl)-4H-1,2,4-triazole-3-carboxamide, trifluoroacetic acid], for which, on HSP90a protein, the pIC50 is 6.00 to 7.00. Moreover, the pEC50 in assay [1] and in assay [3] was 6.00 to 7.00 throughout.
Consider `C=CC(=O)N1CCN(c2nc(NCCC(=O)NCCc3ccc(CN4CCC(Cc5ccc(-n6c(C(=O)NCC(F)(F)F)nnc6-c6cc(C(C)C)c(O)cc6O)cc5)CC4)cc3)nc3c2CCN(c2cccc4ccccc24)C3)C[C@H]1CC#N` [Compound 108, (R)-4-(4-((1-(4-(2-(3-((4-(4-acryloyl-3-(cyanomethyl)piperazin-1-yl)-7-(naphthalen-1-yl)-5,6,7,8-tetrahydropyrido[3,4-d]pyrimidin-2-yl)amino)propanamido)ethyl)benzyl)piperidin-4-yl)methyl)phenyl)-5-(2,4-dihydroxy-5-isopropylphenyl)-N-(2,2,2-trifluoroethyl)-4H-1,2,4-triazole-3-carboxamide, trifluoroacetic acid, trifluoroacetic acid, trifluoroacetic acid, trifluoroacetic …], for which the pIC50 on HSP90a protein is 6.00 to 7.00. For the same compound, the negative-log EC50 (pEC50) in assay [1] and in assay [3] was 6.00 to 7.00 in each case.
On HSP90a protein, `C=CC(=O)N1CCN(c2nc(NCCC(=O)N3CCN(Cc4ccc(CN(C)Cc5ccc(-n6c(C(=O)NCC(F)(F)F)nnc6-c6cc(C(C)C)c(O)cc6O)cc5)cc4)CC3)nc3c2CCN(c2cccc4ccccc24)C3)C[C@H]1CC#N` [Compound 109, (R)-4-(4-(((4-((4-(3-((4-(4-acryloyl-3-(cyanomethyl)piperazin-1-yl)-7-(naphthalen-1-yl)-5,6,7,8-tetrahydropyrido[3,4-d]pyrimidin-2-yl)amino)propanoyl)piperazin-1-yl)methyl)benzyl)(methyl)amino)methyl)phenyl)-5-(2,4-dihydroxy-5-isopropylphenyl)-N-(2,2,2-trifluoroethyl)-4H-1,2,4-triazole-3-carboxamide, trifluoroacetic acid] showed a pIC50 of 6.00 to 7.00. In addition, the pEC50 in assay [1] and in assay [3] was 6.00 to 7.00 each time.
`CC(=O)N1CCN(c2nc(NCCC(=O)N3CCN(Cc4ccc(CN(C)Cc5ccc(-n6c(C(=O)NCC(F)(F)F)nnc6-c6cc(C(C)C)c(O)cc6O)cc5)cc4)CC3)nc3c2CCN(c2cc(O)cc4ccccc24)C3)CC1` [Compound 115, 4-(4-(((4-((4-(3-((4-(4-acetylpiperazin-1-yl)-7-(3-hydroxynaphthalen-1-yl)-5,6,7,8-tetrahydropyrido[3,4-d]pyrimidin-2-yl)amino)propanoyl)piperazin-1-yl)methyl)benzyl)(methyl)amino)methyl)phenyl)-5-(2,4-dihydroxy-5-isopropylphenyl)-N-(2,2,2-trifluoroethyl)-4H-1,2,4-triazole-3-carboxamide, trifluoroacetic acid]: at HSP90a protein, the pIC50 is 6.00 to 7.00. Also, the pEC50 in assay [1] and in assay [3] was 6.00 to 7.00 throughout.
In the case of `CCc1cc(-c2nnc(C(=O)NCC(F)(F)F)n2-c2ccc(CN(C)Cc3ccc(CC4CCN(C(=O)CCNc5nc6c(c(N7CCN(C(C)=O)[C@H](CC#N)C7)n5)CCN(c5cccc7ccccc57)C6)CC4)cc3)cc2)c(O)cc1O` [Compound 118, (R)-4-(4-(((4-((1-(3-((4-(4-acetyl-3-(cyanomethyl)piperazin-1-yl)-7-(naphthalen-1-yl)-5,6,7,8-tetrahydropyrido[3,4-d]pyrimidin-2-yl)amino)propanoyl)piperidin-4-yl)methyl)benzyl)(methyl)amino)methyl)phenyl)-5-(5-ethyl-2,4-dihydroxyphenyl)-N-(2,2,2-trifluoroethyl)-4H-1,2,4-triazole-3-carboxamide, trifluoroacetic acid], the pIC50 at HSP90a protein was less than 6.00. For the same compound, the pEC50 in assay [1] and in assay [3] was 6.00 to 7.00 in each case.
At HSP90a protein, `CCC(=O)N1CCN(c2nc(NCCC(=O)N3CCC(CN4CCN(Cc5ccc(-n6c(C(=O)NC(C)C(F)(F)F)nnc6-c6cc(CC)c(O)cc6O)cc5)CC4)CC3)nc3c2CCN(c2cc(O)cc4ccccc24)C3)CC1` (stereo not shown) [Compound 119, 5-(5-ethyl-2,4-dihydroxyphenyl)-4-(4-((4-((1-(3-((7-(3-hydroxynaphthalen-1-yl)-4-(4-propionylpiperazin-1-yl)-5,6,7,8-tetrahydropyrido[3,4-d]pyrimidin-2-yl)amino)propanoyl)piperidin-4-yl)methyl)piperazin-1-yl)methyl)phenyl)-N-(1,1,1-trifluoropropan-2-yl)-4H-1,2,4-triazole-3-carboxamide, trifluoroacetic acid] had a pIC50 of 6.00 to 7.00. Further, the pEC50 in assay [1] and in assay [3] was 6.00 to 7.00 throughout.
At HSP90a protein, `CCC(=O)N1CCN(c2nc(N3CCC(CN4CCN(Cc5ccc(-n6c(O)nnc6-c6cc(C(C)C)c(O)cc6O)cc5)CC4)CC3)nc3c2CCN(c2cccc4cccc(Cl)c24)C3)C[C@@H]1CC#N` [Compound 128, (S)-2-(4-(7-(8-chloronaphthalen-1-yl)-2-(4-((4-(4-(3-(2,4-dihydroxy-5-isopropylphenyl)-5-hydroxy-4H-1,2,4-triazol-4-yl)benzyl)piperazin-1-yl)methyl)piperidin-1-yl)-5,6,7,8-tetrahydropyrido[3,4-d]pyrimidin-4-yl)-1-propionylpiperazin-2-yl)acetonitrile] showed a pIC50 of 6.00 to 7.00. Further, the pEC50 in assay [1] and in assay [3] was 6.00 to 7.00 in each case.
`CCc1cc(-c2nnc(O)n2-c2ccc(CN3CCN(CC4CCN(c5nc6c(c(N7CCN(C(=O)C(F)(F)F)[C@@H](CC#N)C7)n5)CCN(c5cccc7cccc(Cl)c57)C6)CC4)CC3)cc2)c(O)cc1O` [Compound 131, (S)-2-(4-(7-(8-chloronaphthalen-1-yl)-2-(4-((4-(4-(3-(5-ethyl-2,4-dihydroxyphenyl)-5-hydroxy-4H-1,2,4-triazol-4-yl)benzyl)piperazin-1-yl)methyl)piperidin-1-yl)-5,6,7,8-tetrahydropyrido[3,4-d]pyrimidin-4-yl)-1-(2,2,2-trifluoroacetyl)piperazin-2-yl)acetonitrile] had a pIC50 on HSP90a protein of less than 6.00. For the same compound, the negative logarithm of the EC50 (pEC50) in assay [1] is 6.00 to 7.00; in assay [3] it was less than 6.00.
The compound `C=C(F)C(=O)N1CCN(c2nc(N3CCC(N4CCN(Cc5ccc(-n6c(O)nnc6-c6cc(C(C)C)c(O)cc6O)cc5)CC4)CC3)nc3c2CCN(c2cccc4cccc(Cl)c24)C3)C[C@@H]1CC#N` [Compound 132, (S)-2-(4-(7-(8-chloronaphthalen-1-yl)-2-(4-(4-(4-(3-(2,4-dihydroxy-5-isopropylphenyl)-5-hydroxy-4H-1,2,4-triazol-4-yl)benzyl)piperazin-1-yl)piperidin-1-yl)-5,6,7,8-tetrahydropyrido[3,4-d]pyrimidin-4-yl)-1-(2-fluoroacryloyl)piperazin-2-yl)acetonitrile] had a negative logarithm of the IC50 (pIC50) at HSP90a protein of 6.00 to 7.00. Moreover, the pEC50 in assay [1] and in assay [3] was 6.00 to 7.00 in each case.
